Test results published in patent US20180028477A1, “TREATMENT OF CARDIAC REMODELING AND OTHER HEART CONDITIONS” (C & C BIOPHARMA, LLC, priority 2013, published 2018).
Entries after “also recorded” stand apart in the source; their conditions may differ.

Assays:
[1] = Tolerability in mice, daily dosing for four weeks; type: in vivo; conditions: 100 mg/Kg daily for four weeks
GATA4 = GATA4 acetylation in myocardial lysates, immunoprecipitation/Western (Example 9); type: in vivo; conditions: TAC-operated mice, same conditions
Procedure: Acetyl-MEF2 and acetyl-GATA4 were determined as described in Example 9 in myocardial lysates of TAC- or sham-operated mice treated with the indicated doses of 8MI, or its vehicle (0), as indicated. […] MEF2 acetylation is increased by TAC and reduced by 8MI. Myocardial lysates were immunoprecipitated with either anti-pan MEF2 or GATA4 antibodies, and probed with antibodies against MEF2, GATA4 or acetyl-lysine (control). The quantified data shown in FIG. 9 is from 3 mice per group and normalized to total acetyl-lysine (western blots are not shown).
MEF2 acetylation was determined in myocardial tissue from sham- and TAC-operated mice in the presence of vehicle or 8MI, under the experimental conditions described in Example 4. Protein samples were collected in RIPA (Sigma). […] of protein samples were incubated with 5 μg of acetyl lysine or GATA4 antibodies (Upstate, Charlottesville, Va.) or MEF2 antibody (Santa Cruz Biotechnology, Santa Cruz, Calif.) (5 μg). The immune-complexes were captured using TrueBlot sepharose beads and subjected to Western analysis. The immune complexes were resolved on SDS-PAGE and transferred to nitrocellulose membranes. Membranes were blocked with 5% milk in 0.5% TBS-T for 1 hour at room temperature followed by incubation in primary antibody at appropriate dilutions overnight. […]

Nc1ccccc1NC(=O)CCCCCC(=O)Nc1cccc(Br)c1 [8MI]
signs of kidney or liver damage or other adverse effects [1]: no sign of kidney or liver damage or other adverse effects; also recorded: without any signs of kidney or liver disease or other adverse effects
total and Ac-GATA4 levels (GATA4): no significant change
